Measurements from ChEMBL document CHEMBL4334438, “Discovery of novel glycogen synthase kinase-3α inhibitors: Structure-based virtual screening, preliminary SAR and biological evaluation for treatment of acute myeloid leukemia” (Eur J Med Chem, 2019).
The source made the active and inactive calls. The rule behind the calls is not given here.

Tests used:
[1] = molecular target: Activin receptor type-1B (Homo sapiens) (UniProt P36896); test: Inhibition of human ALK4 (150 to end residues) assessed as residual activity at 1 uM using casein as substrate incubated for 40 mins in presence of [gamma-33ATP] by scintillation counting based radiometry assay relative to control
Chain of Activin receptor type-1B (Homo sapiens) (P36896 whole entry): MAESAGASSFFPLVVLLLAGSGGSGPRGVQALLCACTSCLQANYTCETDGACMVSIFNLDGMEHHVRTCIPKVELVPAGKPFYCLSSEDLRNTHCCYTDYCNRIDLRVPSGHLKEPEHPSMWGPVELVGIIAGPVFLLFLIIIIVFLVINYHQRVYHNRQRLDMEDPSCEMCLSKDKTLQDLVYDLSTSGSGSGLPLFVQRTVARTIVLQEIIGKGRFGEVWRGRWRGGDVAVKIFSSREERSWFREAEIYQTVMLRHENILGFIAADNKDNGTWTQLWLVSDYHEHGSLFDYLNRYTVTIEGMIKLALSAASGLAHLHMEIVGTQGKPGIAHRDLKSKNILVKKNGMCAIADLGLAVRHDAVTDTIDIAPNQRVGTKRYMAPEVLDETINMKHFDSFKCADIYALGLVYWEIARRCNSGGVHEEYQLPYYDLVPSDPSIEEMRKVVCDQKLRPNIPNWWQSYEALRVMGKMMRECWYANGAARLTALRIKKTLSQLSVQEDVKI

[2] = molecular target: Dual specificity mitogen-activated protein kinase kinase 7 (Homo sapiens) (UniProt O14733); test: Inhibition of recombinant human MKK7beta (2 to end residues) assessed as residual activity at 1 uM using inactive JNK1a1 as substrate incubated for 40 mins in presence of [gamma-33ATP by scintillation counting based radiometry assay relative to control
Chain of Dual specificity mitogen-activated protein kinase kinase 7 (Homo sapiens) (O14733 whole entry): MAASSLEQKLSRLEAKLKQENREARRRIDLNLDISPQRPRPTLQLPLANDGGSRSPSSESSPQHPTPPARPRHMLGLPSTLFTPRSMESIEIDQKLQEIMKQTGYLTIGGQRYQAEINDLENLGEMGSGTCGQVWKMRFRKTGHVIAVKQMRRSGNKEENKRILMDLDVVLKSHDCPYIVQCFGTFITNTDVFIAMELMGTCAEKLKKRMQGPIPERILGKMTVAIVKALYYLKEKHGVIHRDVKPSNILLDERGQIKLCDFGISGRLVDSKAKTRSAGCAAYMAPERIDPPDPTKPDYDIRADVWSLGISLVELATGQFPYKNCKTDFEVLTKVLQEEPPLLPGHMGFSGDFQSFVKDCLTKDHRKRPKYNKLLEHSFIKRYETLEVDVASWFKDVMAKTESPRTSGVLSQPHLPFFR

[3] = molecular target: CDK2/Cyclin A1 (Homo sapiens) (UniProt P24941+P78396); test: Inhibition of recombinant full length human CDK2/CyclinA assessed as residual activity at 1 uM using Histone H1 as substrate incubated for 40 mins in presence of [gamma-33ATP] by scintillation counting based radiometry assay relative to control; type: protein-complex assay
NB-4 [4] = test: Induction of cell differentiation in human NB4 cells assessed as increase in CD14-FITC positive cells after 6 days by flow cytometry analysis; type: functional, cell-based
HL-60 [5] = test: Induction of monocytic differentiation in human HL60 cells assessed as increase in CD11b-APC-Cy7 positive cells at 30 uM after 6 days by flow cytometry analysis; type: functional, cell-based
[6] = molecular target: Glycogen synthase kinase-3 alpha (Homo sapiens, UniProt P49840); test: Inhibition of GSK-3alpha phosphorylation at Y279 residue in human HL60 cells after 24 hrs by Western blot analysis; type: cell-based
Chain of Glycogen synthase kinase-3 alpha (P49840 2-483 limits assumed): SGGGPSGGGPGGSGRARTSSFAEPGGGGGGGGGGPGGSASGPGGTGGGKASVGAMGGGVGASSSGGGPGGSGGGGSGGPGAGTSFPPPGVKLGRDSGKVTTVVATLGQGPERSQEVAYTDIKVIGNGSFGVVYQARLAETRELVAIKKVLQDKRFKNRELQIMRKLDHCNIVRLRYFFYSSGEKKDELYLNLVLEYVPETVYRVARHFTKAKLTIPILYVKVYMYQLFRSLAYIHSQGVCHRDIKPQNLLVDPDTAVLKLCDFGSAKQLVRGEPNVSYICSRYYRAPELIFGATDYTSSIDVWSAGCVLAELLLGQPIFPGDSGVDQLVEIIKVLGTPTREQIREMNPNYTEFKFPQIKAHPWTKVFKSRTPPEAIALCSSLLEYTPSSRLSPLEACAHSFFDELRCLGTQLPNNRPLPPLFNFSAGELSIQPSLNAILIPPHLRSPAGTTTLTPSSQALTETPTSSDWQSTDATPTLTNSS

HL-60 [7] = test: Induction of monocytic differentiation in human HL60 cells assessed as increase in CD14-FITC positive cells at 30 uM after 6 days by flow cytometry analysis; type: functional, cell-based
HL-60 [8] = test: Induction of cell differentiation in human HL60 cells assessed as increase in CD11c-APC positive cells after 6 days by flow cytometry analysis; type: functional, cell-based
[9] = molecular target: AP2-associated protein kinase 1 (Homo sapiens) (UniProt Q2M2I8); test: Inhibition of human AAK1 assessed as residual activity at 1 uM using peptide as substrate incubated for 120 mins in presence of [gamma-33ATP] by scintillation counting based radiometry assay relative to control
[10] = molecular target: CDK17/Cyclin-Y (Homo sapiens) (UniProt Q00537+Q8ND76); test: Inhibition of recombinant full length human CDK17/cyclinY assessed as residual activity at 1 uM using PKSPKARKKL as substrate incubated for 120 mins in presence of [gamma-33ATP] by scintillation counting based radiometry assay relative to control; type: protein-complex assay
Chain of CDK17/Cyclin-Y (Homo sapiens) (Q00537 whole entry): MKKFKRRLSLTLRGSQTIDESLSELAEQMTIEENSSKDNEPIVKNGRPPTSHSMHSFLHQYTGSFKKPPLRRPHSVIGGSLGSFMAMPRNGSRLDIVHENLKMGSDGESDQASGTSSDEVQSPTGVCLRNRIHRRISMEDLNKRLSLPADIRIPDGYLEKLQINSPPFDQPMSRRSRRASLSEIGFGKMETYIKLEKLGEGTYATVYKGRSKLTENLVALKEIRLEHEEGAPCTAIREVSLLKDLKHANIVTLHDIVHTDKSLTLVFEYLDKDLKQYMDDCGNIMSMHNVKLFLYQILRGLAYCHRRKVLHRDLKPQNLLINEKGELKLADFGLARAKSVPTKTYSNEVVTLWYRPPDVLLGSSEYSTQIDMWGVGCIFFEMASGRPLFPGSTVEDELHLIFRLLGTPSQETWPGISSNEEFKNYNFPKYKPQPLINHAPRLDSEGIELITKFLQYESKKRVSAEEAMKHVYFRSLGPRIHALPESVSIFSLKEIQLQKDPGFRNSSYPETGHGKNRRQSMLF
Chain of CDK17/Cyclin-Y (Homo sapiens) (Q8ND76 2-341 partner limits assumed): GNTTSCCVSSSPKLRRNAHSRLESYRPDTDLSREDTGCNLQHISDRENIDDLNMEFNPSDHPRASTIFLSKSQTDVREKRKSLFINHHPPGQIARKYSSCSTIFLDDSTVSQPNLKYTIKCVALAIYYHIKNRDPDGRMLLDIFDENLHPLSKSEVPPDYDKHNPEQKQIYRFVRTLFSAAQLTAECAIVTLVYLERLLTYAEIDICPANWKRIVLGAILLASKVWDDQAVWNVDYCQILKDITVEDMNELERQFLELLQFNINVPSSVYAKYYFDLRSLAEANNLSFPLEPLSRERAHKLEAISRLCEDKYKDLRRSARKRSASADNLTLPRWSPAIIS

[11] = molecular target: Serine/threonine-protein kinase DCLK1 (Homo sapiens) (UniProt O15075); test: Inhibition of recombinant human DCAMKL1 assessed as residual activity at 1 uM radiometric assay relative to control
Chain of Serine/threonine-protein kinase DCLK1 (Homo sapiens) (O15075 whole entry): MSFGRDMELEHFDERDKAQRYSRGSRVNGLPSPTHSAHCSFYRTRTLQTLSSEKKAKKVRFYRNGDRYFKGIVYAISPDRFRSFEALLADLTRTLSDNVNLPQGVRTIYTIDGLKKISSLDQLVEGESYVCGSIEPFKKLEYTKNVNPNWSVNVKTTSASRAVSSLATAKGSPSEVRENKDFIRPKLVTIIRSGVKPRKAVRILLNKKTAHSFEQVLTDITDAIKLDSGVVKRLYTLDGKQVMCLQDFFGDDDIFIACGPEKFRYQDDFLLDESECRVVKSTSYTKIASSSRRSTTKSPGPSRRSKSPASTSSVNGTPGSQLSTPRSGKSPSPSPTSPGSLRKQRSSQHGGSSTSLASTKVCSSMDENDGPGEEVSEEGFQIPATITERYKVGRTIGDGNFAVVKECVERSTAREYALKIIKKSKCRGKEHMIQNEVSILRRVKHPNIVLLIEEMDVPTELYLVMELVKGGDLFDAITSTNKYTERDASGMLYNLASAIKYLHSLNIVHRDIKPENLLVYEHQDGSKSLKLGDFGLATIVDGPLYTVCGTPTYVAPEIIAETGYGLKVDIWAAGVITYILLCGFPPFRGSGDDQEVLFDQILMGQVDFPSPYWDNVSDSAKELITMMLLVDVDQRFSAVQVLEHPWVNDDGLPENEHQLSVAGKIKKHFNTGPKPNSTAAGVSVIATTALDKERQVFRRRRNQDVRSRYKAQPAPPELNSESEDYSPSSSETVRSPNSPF

NB-4 [12] = test: Induction of cell death in human NB4 cells at 10 to 30 uM after 6 days by trypan blue assay; type: cell-based; conditions: nb-4, 144 h
HL-60 [13] = test: Induction of cell death in human HL60 cells at 10 to 30 uM after 6 days by trypan blue assay; type: cell-based; conditions: hl-60, 144 h
HL-60 [14] = test: Induction of cell differentiation in human HL60 cells assessed as increase in CD14-FITC positive cells after 6 days by flow cytometry analysis; type: functional, cell-based
[15] = molecular target: Mitogen-activated protein kinase kinase kinase 21 (Homo sapiens) (UniProt Q5TCX8); test: Inhibition of recombinant human MLK4 assessed as residual activity at 1 uM using by radiometry assay relative to control
HL-60 [16] = test: Effect on total beta-catenin level in human HL60 cells at 1 to 30 uM after 24 hrs by Western blot analysis; type: ADME, cell-based; conditions: hl-60, 24 h
[17] = molecular target: Serine/threonine-protein kinase OSR1 (Homo sapiens) (UniProt O95747); test: Inhibition of recombinant human OSR1 assessed as residual activity at 1 uM relative to control
Chain of Serine/threonine-protein kinase OSR1 (Homo sapiens) (O95747 2-527 limits assumed): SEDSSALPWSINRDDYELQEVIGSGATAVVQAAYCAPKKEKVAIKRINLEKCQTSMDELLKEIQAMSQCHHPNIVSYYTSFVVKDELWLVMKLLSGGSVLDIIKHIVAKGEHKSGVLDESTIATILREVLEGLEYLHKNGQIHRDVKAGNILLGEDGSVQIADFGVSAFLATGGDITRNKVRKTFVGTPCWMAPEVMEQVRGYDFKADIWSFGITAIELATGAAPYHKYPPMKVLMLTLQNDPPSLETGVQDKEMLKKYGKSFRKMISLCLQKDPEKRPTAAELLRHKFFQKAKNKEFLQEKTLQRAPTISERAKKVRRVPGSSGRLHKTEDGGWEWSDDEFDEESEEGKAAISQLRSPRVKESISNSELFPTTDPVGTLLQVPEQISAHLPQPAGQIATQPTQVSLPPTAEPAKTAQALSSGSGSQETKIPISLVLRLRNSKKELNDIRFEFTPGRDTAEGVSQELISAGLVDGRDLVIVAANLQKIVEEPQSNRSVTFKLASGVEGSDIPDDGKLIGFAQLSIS

[18] = molecular target: Serine/threonine-protein kinase WNK4 (Homo sapiens) (UniProt Q96J92); test: Inhibition of human WNK4 assessed as residual activity at 1 uM using myelin basic protein as substrate measured after 120 mins in presence of [gamma33P]ATP by scintillation counting method relative to control
HL-60 [19] = test: Inhibition of colony formation in human HL60 cells preincubated for 72 hrs followed by compound washout and measured after 7 to 10 days; type: functional, cell-based
HL-60 [20] = test: Antiproliferative activity against human HL60 cells assessed as reduction in viability after 3 days by SRB assay; type: functional, cell-based
NB-4 [21] = test: Induction of cell differentiation in human NB4 cells assessed as increase in CD11c-APC positive cells after 6 days by flow cytometry analysis; type: functional, cell-based
NB-4 [22] = test: Antiproliferative activity against human NB4 cells assessed as reduction in viability after 3 days by SRB assay; type: functional, cell-based
NB-4 [23] = test: Induction of cell differentiation in human NB4 cells assessed as increase in CD11b-APC-Cy7 positive cells after 6 days by flow cytometry analysis; type: functional, cell-based
NB-4 [24] = test: Induction of monocytic differentiation in human NB4 cells assessed as increase in CD14 positive cells at 30 uM after 6 days by FITC staining based flow cytometry analysis; type: functional, cell-based
[25] = molecular target: Serine/threonine-protein kinase LATS2 (Homo sapiens) (UniProt Q9NRM7); test: Inhibition of human LATS2 assessed as residual activity at 1 uM by radiometric assay relative to control
Chain of Serine/threonine-protein kinase LATS2 (Homo sapiens) (Q9NRM7 whole entry): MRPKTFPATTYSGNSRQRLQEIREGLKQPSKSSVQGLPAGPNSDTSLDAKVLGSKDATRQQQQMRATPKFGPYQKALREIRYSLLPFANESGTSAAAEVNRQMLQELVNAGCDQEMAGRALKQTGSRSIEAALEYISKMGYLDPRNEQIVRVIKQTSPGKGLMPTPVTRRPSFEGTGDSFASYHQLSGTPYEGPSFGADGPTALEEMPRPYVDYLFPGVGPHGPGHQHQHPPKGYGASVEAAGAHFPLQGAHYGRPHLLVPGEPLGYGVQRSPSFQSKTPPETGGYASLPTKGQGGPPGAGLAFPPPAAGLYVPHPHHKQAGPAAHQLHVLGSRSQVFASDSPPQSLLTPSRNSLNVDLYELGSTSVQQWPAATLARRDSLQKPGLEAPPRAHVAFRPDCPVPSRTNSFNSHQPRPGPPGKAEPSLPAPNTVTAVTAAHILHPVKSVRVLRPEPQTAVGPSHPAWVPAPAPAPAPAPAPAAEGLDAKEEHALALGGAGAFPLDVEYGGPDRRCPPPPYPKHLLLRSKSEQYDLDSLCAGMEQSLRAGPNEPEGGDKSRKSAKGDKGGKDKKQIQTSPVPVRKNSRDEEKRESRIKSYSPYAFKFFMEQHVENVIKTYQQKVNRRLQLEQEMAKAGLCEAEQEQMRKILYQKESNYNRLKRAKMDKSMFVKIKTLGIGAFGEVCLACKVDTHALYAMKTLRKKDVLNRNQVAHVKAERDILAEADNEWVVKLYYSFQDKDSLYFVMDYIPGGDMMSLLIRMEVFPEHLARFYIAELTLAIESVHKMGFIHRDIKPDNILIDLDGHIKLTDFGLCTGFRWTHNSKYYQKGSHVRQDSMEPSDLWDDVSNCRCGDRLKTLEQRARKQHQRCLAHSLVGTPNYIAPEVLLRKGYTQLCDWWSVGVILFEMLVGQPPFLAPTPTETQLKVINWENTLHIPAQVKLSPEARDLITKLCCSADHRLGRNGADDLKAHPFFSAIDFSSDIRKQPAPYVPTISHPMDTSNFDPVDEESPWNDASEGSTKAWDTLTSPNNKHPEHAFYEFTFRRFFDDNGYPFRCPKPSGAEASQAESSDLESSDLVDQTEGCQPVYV

[26] = molecular target: Cyclin-Y/Cyclin-dependent kinase 16 (Homo sapiens) (UniProt Q00536+Q8ND76); test: Inhibition of recombinant full length human CDK16/cyclinY assessed as residual activity at 1 uM using PKSPKARKKL as substrate incubated for 120 mins in presence of [gamma-33ATP] by scintillation counting based radiometry assay relative to control; type: protein-complex assay
[27] = molecular target: Serine/threonine-protein kinase MRCK gamma (Homo sapiens) (UniProt Q6DT37); test: Inhibition of recombinant human MRCKgamma assessed as residual activity at 1 uM using KKRNRTLTV as substrate measured after 40 mins in presence of [gamma33P]ATP by scintillation counting method relative to control
[28] = molecular target: STE20/SPS1-related proline-alanine-rich protein kinase (Homo sapiens) (UniProt Q9UEW8); test: Inhibition of recombinant human STK39 assessed as residual activity at 1 uM in presence of [gamma33P]ATP by scintillation counting based radiometry assay relative to control
[29] = molecular target: BMP-2-inducible protein kinase (Homo sapiens) (UniProt Q9NSY1); test: Inhibition of recombinant human BIKe assessed as residual activity at 1 uM using peptide as substrate incubated for 120 mins in presence of [gamma-33ATP] by scintillation counting based radiometry assay relative to control
[30] = system: Serine/threonine-protein kinase 38 (NDR1); test: Inhibition of recombinant human NDR1 assessed as residual activity at 1 uM relative to control
NB-4 [31] = test: Induction of monocytic differentiation in human NB4 cells assessed as increase in CD11b-APC-Cy7 positive cells at 30 uM after 6 days by flow cytometry analysis; type: functional, cell-based
NB-4 [32] = test: Effect on total beta-catenin level in human NB4 cells at 1 to 30 uM after 24 hrs by Western blot analysis; type: ADME, cell-based; conditions: nb-4, 24 h

`N=C1NC(=O)/C(=C\c2ccc(-c3cccc([N+](=O)[O-])c3)o2)S1` was tested, and the Activity [1] was 109%, the Activity [2] was 93% and the Activity [3] was 61%.
With `C=CCOC(=O)c1cc(-c2ccc(/C=C3/NC(=S)NC3=O)o2)ccc1Cl` the Activity (NB-4 [4]) was “Dose-dependent effect”, the Activity (HL-60 [5]) was “Active” and the inhibition [6] was “Dose-dependent effect”. For the same compound, the Activity (HL-60 [7]) was “Active”, the Activity (HL-60 [8]) was “Dose-dependent effect” and the Activity [9] was 101%. The Activity [10] was 72%, the Activity [11] was 85% and the Activity (NB-4 [12]) was “Non-Toxic”. The Activity (HL-60 [13]) was “Non-Toxic”, the Activity (HL-60 [14]) was “Dose-dependent effect” and the Activity [15] was 95%. For the same compound, the Activity (HL-60 [16]) was “Non-Toxic”, the Activity [17] was 118% and the Activity [18] was 93%. For the same compound, the Activity [1] was 105%, the inhibition (HL-60 [19]) was “Dose-dependent effect” and the Activity (HL-60 [20]) was “Dose-dependent effect”. The Activity (NB-4 [21]) was “Dose-dependent effect”, the Activity (NB-4 [22]) was “Dose-dependent effect” and the Activity (NB-4 [23]) was “Dose-dependent effect”. For the same compound, the Activity (NB-4 [24]) was “Active”, the Activity [25] was 100% and the Activity [26] was 82%. The Activity [27] was 110%, the Activity [28] was 103% and the Activity [29] was 111%. The Activity [30] was 99%, the Activity (NB-4 [31]) was “Active” and the Activity [3] was 54%. For the same compound, the Activity (NB-4 [32]) was “Non-Toxic”.
